From patent US6369111B1, “Substituted oximes” (priority 1998, dated 2002)

Test: logP determination by HPLC (EEC Directive 79/831 Annex V. A8)
Assay type: physicochemical
Protocol: The logP values were determined in accordance with EEC Directive 79/831 Annex V. A8 by HPLC (gradient method, acetonitrile/0.1% aqueous phosphoric acid (s) or gradient method, acetonitrile/0.1% water (n))

| chromatographic logP | SMILES |
| --- | --- |
| 3.5 | CO/N=C(SC)/C(C)=N/OCc1ccccc1/C(=C\C(=O)OC)OC [Example 1, methyl 3-methoxy-3-[2-(2-methoxyamino-1-methyl-2-methylthio-ethylideneaminooxymethyl)-phenyl]-acrylate] |
| 2.79 | CO/N=C(/C(C)=N/OCc1ccccc1/C(=C\C(=O)OC)OC)S(C)(=O)=O [Example 2, methyl 3-[2-(2-methanesulfonyl-2-methoxyimino-1-methyl-ethylideneaminooxymethyl)-phenyl]-3-methoxy-acrylate] |
| 3.05 | CO/N=C(OC)/C(C)=N/OCc1ccccc1/C(=C\C(=O)OC)OC [Example 3, methyl 3-methoxy-3-[2-(2-methoxy-2-methoxyimino-1-methyl-ethylideneaminooxymethyl)-phenyl]-acrylate] |
